Test results: the supplement of paper PMC10307832

Assays:
Test in all cases: relative viability (nuclei count vs DMSO), 5 days (fraction); higher = more cells survive
[1] = compound: CC1=C(CC(=O)O)c2cc(F)ccc2/C1=C\c1ccc([S+](C)[O-])cc1 [Sulindac] + Cc1nc(Nc2ncc(C(=O)Nc3c(C)cccc3Cl)s2)cc(N2CCN(CCO)CC2)n1 [Dasatinib] (partner 0.075 µM)
In short: (§1)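 Medians of duplicate plates are given as relative viability. That measure is the nuclei count in treated wells divided by the count in vehicle wells. Counts were taken on 4× images of lung cancer cell lines in 1536-well plates, 5 days after pin-tool dosing the day after seeding with one drug alone or a fixed anchor-drug dose plus five library-drug doses (not always all listed) in √10 steps.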

[2] = compound: CN[C@@H]1C[C@H]2O[C@@](C)([C@@H]1OC)n1c3ccccc3c3c4c(c5c6ccccc6n2c5c31)C(=O)NC4 [Staurosporine] + NC(=O)Nc1cc(-c2cccc(F)c2)sc1C(=O)N[C@H]1CCCNC1 [AZD7762] (partner 0.2 µM)
In short: as §1

[3] = compound: CN[C@@H]1C[C@H]2O[C@@](C)([C@@H]1OC)n1c3ccccc3c3c4c(c5c6ccccc6n2c5c31)C(=O)NC4 [Staurosporine] + COc1cccc2cc(-c3nc([C@H]4CC[C@H](C(=O)O)CC4)n4ncnc(N)c34)[nH]c12 [OSI-027] (partner 0.5 µM)
In short: as §1

[4] = compound: CC1=C(CC(=O)O)c2cc(F)ccc2/C1=C\c1ccc([S+](C)[O-])cc1 [Sulindac] + CC(=O)c1c(C)c2cnc(Nc3ccc(N4CCNCC4)cn3)nc2n(C2CCCC2)c1=O [Palbociclib] (partner 0.5 µM)
In short: as §1

Cell Line | relative viability ([1]; first compound 0.08 µM) | relative viability ([1]; first compound 0.253 µM) | relative viability ([1]; first compound 0.8 µM) | relative viability ([1]; first compound 2.53 µM) | relative viability ([1]; first compound 8 µM) | relative viability ([2]; first compound 0.005 µM) | relative viability ([2]; first compound 0.01581 µM) | relative viability ([2]; first compound 0.05 µM) | relative viability ([2]; first compound 0.1581 µM) | relative viability ([2]; first compound 0.5 µM) | relative viability ([3]; first compound 0.005 µM) | relative viability ([3]; first compound 0.01581 µM) | relative viability ([3]; first compound 0.05 µM) | relative viability ([3]; first compound 0.1581 µM) | relative viability ([3]; first compound 0.5 µM) | relative viability ([4]; first compound 0.08 µM) | relative viability ([4]; first compound 0.253 µM) | relative viability ([4]; first compound 0.8 µM) | relative viability ([4]; first compound 2.53 µM) | relative viability ([4]; first compound 8 µM)
NCI-H1666 | 0.945 | 0.875 | 0.716 | 0.871 | 0.995 | 0.701 | 0.51 | 0.524 | 0.404 | 0.32 | 0.658 | 0.542 | 0.548 | 0.425 | 0.262 | 0.632 | 0.606 | 0.545 | 0.727 | 0.624
NCI-H1734 | 0.514 | 0.428 |  | 0.445 | 0.5 | 0.539 | 0.242 | 0.194 | 0.0987 | 0.0915 | 0.456 | 0.245 | 0.209 | 0.13 | 0.0703 | 0.298 | 0.345 | 0.311 | 0.32 | 0.402
NCI-H1755 | 0.52 | 0.478 | 0.36 | 0.442 | 0.495 | 0.318 | 0.228 | 0.214 | 0.224 | 0.224 | 0.344 | 0.268 | 0.209 | 0.189 | 0.18 | 0.479 | 0.48 | 0.517 | 0.495 | 0.504
NCI-H1792 | 0.881 | 0.867 |  | 0.812 | 0.914 | 0.227 | 0.0748 | 0.0605 | 0.0466 | 0.0293 |  | 0.635 | 0.347 | 0.282 | 0.323 | 0.646 | 0.734 |  | 0.601 | 0.635
NCI-H1793 | 0.431 | 0.38 | 0.369 | 0.408 | 0.398 | 0.352 |  | 0.143 | 0.186 | 0.145 | 0.378 |  | 0.174 | 0.0897 | 0.102 | 0.301 | 0.375 |  | 0.34 | 0.364
NCI-H1915 | 0.345 | 0.335 |  | 0.291 | 0.322 | 0.707 | 0.495 | 0.346 | 0.21 | 0.09 | 0.448 | 0.115 | 0.193 | 0.0877 | 0.111 | 0.566 | 0.538 | 0.574 | 0.517 | 0.506
NCI-H1944 | 0.207 | 0.202 | 0.18 | 0.2 | 0.269 | 0.349 | 0.25 | 0.275 | 0.177 | 0.192 | 0.322 | 0.153 | 0.257 | 0.166 | 0.119 | 0.363 | 0.333 | 0.338 | 0.351 | 0.374
NCI-H1975 | 0.411 | 0.315 | 0.345 | 0.353 | 0.375 | 0.536 | 0.402 | 0.357 | 0.261 | 0.182 | 0.573 | 0.144 | 0.187 |  | 0.0826 | 0.621 | 0.638 | 0.451 | 0.546 | 0.619
NCI-H1993 | 0.569 | 0.516 | 0.543 | 0.581 | 0.575 | 0.676 | 0.39 | 0.407 | 0.331 | 0.296 | 0.551 | 0.445 | 0.614 | 0.399 | 0.461 | 0.666 | 0.658 | 0.591 | 0.727 | 0.604
NCI-H2085 | 0.209 | 0.219 | 0.27 | 0.238 | 0.213 | 0.751 | 0.42 | 0.47 | 0.245 | 0.276 | 0.597 | 0.168 | 0.249 | 0.155 | 0.148 | 0.406 | 0.487 | 0.497 | 0.508 | 0.429
NCI-H2087 | 1.23 | 0.82 |  | 0.8 | 1.11 | 1.3 |  | 0.681 | 0.207 | 0.0787 | 0.366 | 0.135 | 0.147 | 0.106 | 0.107 | 0.224 | 0.273 | 0.228 | 0.239 | 0.224
NCI-H2126 | 0.558 | 0.585 | 0.597 | 0.57 | 0.671 | 0.914 | 0.622 | 0.673 | 0.268 | 0.27 | 0.712 | 0.406 | 0.486 | 0.338 | 0.333 | 0.344 | 0.333 | 0.395 | 0.372 | 0.361
NCI-H2170 | 0.631 | 0.586 | 0.659 | 0.508 | 0.741 | 1.05 |  | 0.43 | 0.0989 | 0.15 | 0.815 |  | 0.576 | 0.175 | 0.0943 | 0.482 | 0.402 | 0.413 | 0.427 | 0.38
NCI-H2342 | 0.276 | 0.339 | 0.287 | 0.303 | 0.319 | 0.642 | 0.412 | 0.373 | 0.335 | 0.328 | 0.702 | 0.482 | 0.438 | 0.402 | 0.37 | 0.466 | 0.482 | 0.536 | 0.481 | 0.56
NCI-H2347 | 0.282 | 0.25 |  | 0.303 | 0.275 | 0.459 | 0.264 | 0.374 |  | 0.224 | 0.385 | 0.229 | 0.171 | 0.277 | 0.238 | 0.42 | 0.459 | 0.453 | 0.379 | 0.461
NCI-H2405 | 0.22 | 0.234 | 0.331 | 0.218 | 0.228 | 0.239 | 0.141 | 0.112 |  | 0.0865 | 0.593 | 0.182 | 0.116 | 0.0974 | 0.0903 | 0.531 | 0.525 | 0.5 | 0.509 | 0.593
NCI-H3122 | 0.79 | 0.825 | 0.74 | 0.705 | 0.894 |  |  | 0.678 |  | 0.192 | 1.25 |  | 0.857 | 0.155 | 0.0733 | 0.161 | 0.183 | 0.218 | 0.204 | 0.205
